# How the values were obtained:
# carp = assay: Carp exposed to 75 ppm linalool for varying amounts of time, recovery observed; type: in vivo, Cyprinus carpio; set-up: key to recovery state at 13 minutes after introduction of linalool / recovery state at 15 minutes after introduction of linalool / recovery state at 16 minutes after introduction of linalool / recovery state at 17 minutes after introduction of linalool / recovery state at 19 minutes after introduction of linalool / recovery state at 20 minutes after introduction of linalool / recovery state at 21 minutes after introduction of linalool / recovery state at 22 minutes after introduction of linalool / recovery state at 24 minutes after introduction of linalool / recovery state at 25 minutes after introduction of linalool / recovery state at 27 minutes after introduction of linalool / recovery state at 28 minutes after introduction of linalool / recovery state at 29 minutes after introduction of linalool / recovery state at 38 minutes after introduction of linalool / recovery state at 39 minutes after introduction of linalool / recovery state at 40 minutes after introduction of linalool / recovery state at 70 minutes after introduction of linalool / recovery state at 77 minutes after introduction of linalool / recovery state at 78 minutes after introduction of linalool: RT = removed to recovery tank; PR = partial recovery; TR = total recovery
# Experimental: 16 healthy carp (Cyprinus carpio), average weight of 150 g, maintained in 6 liter tanks, were each exposed to 75 ppm of linalool (using the same formulation described in Example 1, 45 g of which were mixed into each treatment tank) for varying amounts of time. Pairs of fish were introduced to linalool simultaneously and then removed to recovery tanks at various times: 3, 8, 12, 15, 20, 30, 40 and 50 minutes after introduction, and each fish's recovery was observed over the course of two consecutive days. Complete anesthesia was achieved after 5 minutes of exposure.
# Ramirez fish = assay: Anesthesia of Ramirez fish by linalool or Ho Wood oil added to tank water; type: in vivo
# Experimental: A one year old koi fish of body length 11 cm and which appeared to be healthy was placed in a 4 liter tank containing water at 25° C. and in which the water was circulated by means of aeration. A liquid a mixture containing 1 wt. % synthetic linalool (1 wt. % linalool, 5 wt. % 14R, 2 wt. % AF80 and 92 wt. % water) was added to the tank and manually mixed with the water so that the concentration of linalool in the water was 50 ppm. This was regarding as the starting time of the experiment; thereafter, observations were made regularly to determine the behavior of the fish in water. This continued until no response to external stimulation and complete loss of equilibrium were observed, at which point the fish was transferred to a recovery tank containing fresh water. The fish was placed near the air pump, and the time until the fish again swam and responded normally to external stimulation was recorded.
# This experiment repeated the experiment of Example 1, using three goldfish (Carassius auratus auratus, average body length 12.5 cm) and five Ramirez fish (Mikrogeophagus ramirezi, body length 3.5-4 cm). All fishes appeared to be healthy. The goldfish tank held 4 liters of water and the tank holding the Ramirez fish one liter.
# The experiment of example 9 was repeated, this time using five nine-month old Ramirez fish (M. ramirezi) in a one-liter tank. The respective weights were 0.8 g, 0.75 g, 0.7 g, 0.85 g and 0.75 g and the respective body lengths were 3.5 cm, 3.5 cm, 3 cm, 4 cm and 3 cm. The water temperature was 26° C. and the pH was 7. The fish became relaxed 2 minutes after addition of linalool, and after 5 minutes the fish were completely anesthetized. After 10 minutes the fish were removed to a recovery tank with fresh water. After 5 minutes in the recovery tank the fish had resumed normal behavior.
# The experiment of Example 21 was repeated, using four one-year old Ramirez fish of respective body lengths 3, 2.5, 3 and 3.5 cm, and adding the Ho Wood oil to a linalool concentration of 50 ppm in the water. […] At 2.5 minutes the fish were removed to a recovery tank with clean water. After 7 minutes in the recovery tank they swam around and appeared to have resumed normal activity.
# The experiment of Example 21 was repeated, using four 1-year old Ramirez fish of respective body lengths 3, 3.5, 3.5 and 4 cm, and adding the Ho Wood oil to a linalool concentration in the water of 75 ppm instead 50 ppm. […] At 1.5 minutes the fish were removed to a recovery tank with clean water. After 7 minutes in the recovery tank the fish swam around and appeared to have resumed normal activity.
# fish = assay: Exposure of fish to linalool at different concentrations and times (survival, anesthesia); type: in vivo
# Text: As will be appreciated by persons skilled in the art, for a given type of aquatic organism of a given size, there is an inverse (though not necessarily linear) relationship between the concentration of linalool in the water and the amount of time the organism needs to be exposed to the linalool in order to achieve sedation or anesthetization, and similarly there is an inverse (though not necessarily linear) relationship between the linalool concentration and the amount of time an organism may be exposed to the linalool in order before death occurs. […] On the other hand, the same fish were unaffected by exposure to 25 ppm linalool, even for long periods of time.
# [1] = carp 150 g, fish still exposed (nos. 3-16)
# [2] = carp, removed to recovery tank at 8 minutes (fish nos. 3, 4)
# [3] = carp, removed to recovery tank at 12 minutes (fish nos. 5, 6)
# [4] = carp, removed to recovery tank at 15 minutes (fish nos. 7, 8)
# [5] = carp, removed to recovery tank at 20 minutes (fish nos. 9, 10)
# [6] = carp, removed to recovery tank at 30 minutes (fish nos. 11, 12)
# [7] = carp, removed to recovery tank at 40 minutes (fish nos. 13, 14)
# [8] = Example 12: five Ramirez fish 0.7-0.85 g, experiment of example 9 (50 ppm linalool), 26° C., pH 7
compound,measurement,setting,value
C=CC(C)(O)CCC=C(C)C (centres unmarked) [linalool],time of exposure until complete anesthesia,carp; Example 8: carp 150 g,5 min
same,observed state at 5 minutes after introduction of linalool,carp; carp 150 g,Loss of reflex reactivity (stage 5 anesthesia)
same,observed state at 10 minutes after introduction of linalool,carp; carp 150 g,opercular movements slow and irregular
same,observed state at 1 minute after introduction of linalool,"carp; carp 150 g, all fish",Total loss of equilibrium
same,observed state at 3 minutes after introduction of linalool,carp; [1],Total loss of reactivity to all but strong external stimuli
same,observed state at 4 minutes after introduction of linalool,carp; [1],slow but regular opercular rate
same,recovery state at 13 minutes after introduction of linalool,"carp; carp, removed to recovery tank at 3 minutes (fish nos. 1, 2)",TR
same,recovery state at 15 minutes after introduction of linalool,carp; [2],PR
same,recovery state at 16 minutes after introduction of linalool,carp; [2],TR and PR
same,recovery state at 17 minutes after introduction of linalool,carp; [2],TR
same,recovery state at 19 minutes after introduction of linalool,carp; [3],PR
same,recovery state at 20 minutes after introduction of linalool,carp; [3],PR
same,recovery state at 21 minutes after introduction of linalool,carp; [3],TR
same,recovery state at 22 minutes after introduction of linalool,carp; [3],TR
same,recovery state at 24 minutes after introduction of linalool,carp; [4],PR
same,recovery state at 25 minutes after introduction of linalool,carp; [4],TR
same,recovery state at 28 minutes after introduction of linalool,carp; [4],PR
same,recovery state at 29 minutes after introduction of linalool,carp; [4],TR
same,recovery state at 27 minutes after introduction of linalool,carp; [5],PR
same,recovery state at 28 minutes after introduction of linalool,carp; [5],TR
same,recovery state at 38 minutes after introduction of linalool,carp; [6],PR
same,recovery state at 39 minutes after introduction of linalool,carp; [6],TR and PR
same,recovery state at 40 minutes after introduction of linalool,carp; [6],TR
same,recovery state at 70 minutes after introduction of linalool,carp; [7],TR
same,recovery state at 77 minutes after introduction of linalool,carp; [7],PR
same,recovery state at 78 minutes after introduction of linalool,carp; [7],TR
same,recovery of fish nos. 15 and 16,"carp; carp, removed to recovery tank at 50 minutes",Fish nos. 15 and 16 never recovered.
same,mortality during a further three days of observation,"Ramirez fish; Example 7: five Ramirez fish 3.5-4 cm, experiment of Example 1 repeated",no mortality occurred
same,time in recovery tank until normal behavior resumed,"Ramirez fish; Example 12: Ramirez fish, 26° C., removed after 10 minutes",5 min
same,time after addition of linalool until fish became relaxed,Ramirez fish; [8],2 min
same,time until fish completely anesthetized,Ramirez fish; [8],5 min
same,effect of exposure,"fish; fish exposed to 25 ppm linalool, even for long periods of time",unaffected
same,survival,fish; fish left for 40 minutes in 100 ppm linalool,did not survive
same,survival,fish; fish left for 50 minutes in 75 ppm linalool,did not survive
same,anesthesia,fish; fish left for five minutes in 100 ppm linalool,effectively anesthetized
